We go through 4 compounds from publication PMC10198977, “Computational design of dynamic receptor—peptide signaling complexes applied to chemotaxis” (Nature Communications, 2023).

Assay type in all cases: cell-based
One experiment addresses Cdyn (Homo sapiens, UniProt P61073, L41A/H113N/S178A). In words: Gαi BRET of peptides on Cdyn. Also on record: Gi BRET (dEC50): unit not given here. As to conditions: Cdyn receptor; for Gi BRET (dEC50): vs WT:WT. Here is the method: (§1) Lyophilized peptides were stored at −80 °C and resuspended in assay buffer on the day of the experiment.
(§2) 40,000 HEK 293T cells were transiently transfected with WT or variant HA3-CXCR4, Gαi1−91-Rluc8, Gβ3-WT, and Gγ9-GFP2 in pcDNA3.1(+) at a ratio of 10:1:10:5 respectively. Cells were first seeded in 100 µL DMEM 10% FBS in a poly-lysine coated, white-walled, white-bottom 96-well plate. Directly after cell loading, 50 µL of the mixture containing Lipofectamine 2000 and the DNA was added on top of the cells. The cells were then left to incubate at 37 °C, 5% CO2, and 95% relative humidity for 20 h, after which, 150 µL media was refreshed. Cells were assayed 48 h post-transfection. Cells were washed with 150 µL PBS, then 40 µL BRET buffer (HBSS, 0.2% Glucose) was added to each well. Coelenterazine 400a was first added at a final concentration of 2.5 µM and BRET ratios were measured once using Mithras[2] LB 943 plate reader. After the first measurement, 40 µL of a 3x concentrated agonist solution was added to each well, and BRET ratios were measured for another 30 min using a Mithras[2] LB 943 plate reader. Mock-transfected controls were subtracted from the data. Maximum values averaged from 3 replicates were then plotted against selected concentrations and fitted to a sigmoidal curve using GraphPad Prism v9.
Background: BRET reads energy transfer from a luciferase to a nearby fluorophore.

The next experiment concerns Gαi activation. In words: Gαi dissociation BRET of designed receptors with WT CXCL12(1-17) peptide. More on the design: Gαi BRET response: scale not given here. To be noted: HEK 293T. Here is the method:
as §1, §2

The next experiment deals with Csedy (Homo sapiens, UniProt P61073). Put plainly: Gαi BRET of peptides on Csedy. As to conditions: Csedy receptor; for Gi BRET (dEC50): vs WT:WT. Here is the method: as §1, §2

Residues, ends and D or L forms follow the SMILES beside them. No end group written: not given here.

Cdyn, sequence (P61073 whole entry L41A/H113N/S178A): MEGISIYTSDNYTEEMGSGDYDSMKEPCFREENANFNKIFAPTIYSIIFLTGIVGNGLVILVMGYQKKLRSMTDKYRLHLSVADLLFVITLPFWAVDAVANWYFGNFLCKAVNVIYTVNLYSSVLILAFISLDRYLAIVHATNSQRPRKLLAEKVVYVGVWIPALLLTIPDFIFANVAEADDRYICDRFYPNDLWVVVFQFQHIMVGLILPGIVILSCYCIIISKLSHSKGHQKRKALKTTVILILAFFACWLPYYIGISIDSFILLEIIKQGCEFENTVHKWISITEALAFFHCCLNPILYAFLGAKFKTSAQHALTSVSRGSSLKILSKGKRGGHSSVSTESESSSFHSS
Csedy, sequence (P61073 whole entry): as the sequence (P61073 whole entry L41A/H113N/S178A) above, with A41L, N113H, A178S counted along it

Regarding “V3W: CXCL12(1-17) peptide variant V3W (KPWSLSYRCPCRFFESH-NH2; cysteine pairing not given here; UniProt P48061 22-38, looked up, variant V3W)”, the “Efficacy, Gi” value with Cdyn (mean) was determined as 130.6 %WT-WT. Moreover, the “Gi BRET (dEC50)” value is recorded as -1.8535 with Cdyn (replicate 1), -2.0125 with Cdyn (replicate 2) and -2.163 in the experiment with Cdyn (replicate 3).
As to “WT CXCR4: WT CXCR4 with an N-terminal 3xHA-tag”, the “Gαi BRET response” value worked out at 84.4534 in the experiment on Gαi activation (log[WT CXCL12(1-17)] -4.17653, replicate 1); 83.4696 with Gαi activation (log[WT CXCL12(1-17)] -4.17653, replicate 2); 62.5022 with Gαi activation (log[WT CXCL12(1-17)] -4.65365, replicate 1); 62.6195 in the experiment with Gαi activation (log[WT CXCL12(1-17)] -4.65365, replicate 2); 35.993 in the experiment on Gαi activation (log[WT CXCL12(1-17)] -5.13077, replicate 1); 39.2443 with Gαi activation (log[WT CXCL12(1-17)] -5.13077, replicate 2). Moreover, the “Gαi BRET response” value with Gαi activation (log[WT CXCL12(1-17)] -5.60789, replicate 1) is reported as 12.5404; in the experiment on Gαi activation (log[WT CXCL12(1-17)] -5.60789, replicate 2), 16.9401; in the experiment with Gαi activation (log[WT CXCL12(1-17)] -6.08501, replicate 1) it was 10.2917; with Gαi activation (log[WT CXCL12(1-17)] -6.08501, replicate 2), 3.156; in the experiment with Gαi activation (log[WT CXCL12(1-17)] -8, replicate 1) it was -1.029; in the experiment with Gαi activation (log[WT CXCL12(1-17)] -8, replicate 2), 1.036.
On to “V3W-Y7L: CXCL12(1-17) peptide variant V3W-Y7L (KPWSLSLRCPCRFFESH-NH2; cysteine pairing not given here; UniProt P48061 22-38, looked up, variant V3W Y7L)”, for which the “Efficacy, Gi” value with Csedy (mean) was found to be 135.5 %WT-WT. The results for the “Gi BRET (dEC50)” value with Csedy (replicate 1), with Csedy (replicate 2) and in the experiment with Csedy (replicate 3) were -1.6525, -2.5125 and -1.456, respectively.
Turning to `CC(C)C[C@H](NC(=O)[C@H](CO)NC(=O)[C@H](Cc1ccc(O)cc1)NC(=O)[C@@H]1CCCN1C(=O)[C@@H](N)CCCCN)C(=O)N[C@@H](CO)C(=O)N[C@@H](Cc1ccc(O)cc1)C(=O)N[C@@H](CCCNC(=N)N)C(=O)N[C@@H](CS)C(=O)N1CCC[C@H]1C(=O)N[C@@H](CS)C(=O)N[C@@H](CCCNC(=N)N)C(=O)N[C@@H](Cc1ccccc1)C(=O)N[C@@H](Cc1ccccc1)C(=O)N[C@@H](CCC(=O)O)C(=O)N[C@@H](CO)C(=O)N[C@@H](Cc1c[nH]cn1)C(N)=O` [V3Y] (H-KPYSLSYRCPCRFFESH-NH2; N-terminus assumed), at Cdyn (vs WT receptor–peptide pair), the enhanced potency entry is recorded as “more than 80 -fold”. Besides, the “Gi BRET (dEC50)” value is -2.1375 at Cdyn (replicate 1); -1.6575 at Cdyn (replicate 2); -1.8525 at Cdyn (replicate 3); -1.6695 on Cdyn (replicate 4); -1.8605 on Cdyn (replicate 5).
